Assay [1] relates to A375 human skin melanoma. Nature of the assay: MTT cell viability assay, A375. It is filed as cell-based. The settings on record: 72 h. From the text:
(§1) Thus, care must be taken when comparing their biological activities with those of our previous studies, even with the same cell line, because the covalent vs. non‐covalent combination of drugs might imply different mechanisms of action in the cell.44 Here, we studied the in vitro activity of ruthenacarborane 3, i. e. free acid, and its 8‐hydroxyquinolyl (4) and 4‐{(7‐chloroquinolin‐4‐yl)oxy}butanol‐1‐yl (5) esters, against a panel of cancer cell lines (B16 mouse melanoma, A375 human skin melanoma, MCF‐7 human breast adenocarcinoma, LN229 human glioblastoma, U251 human glioma). Human fibroblast cell line MRC‐5, murine microglial cell line BV‐2 as well as peritoneal exudate cells (Mph), were chosen as models for non‐malignant cells. […] On the other side, we wanted to assess the reproducibility of the viability data, under either controlled (with BSA) or uncontrolled (without BSA) conditions, in two sets of independent assays. […] Cells were exposed to 3–5 for 72 h, after which cell viability was determined via 3‐(4,5‐dimethylthiazol‐2‐yl)‐2,5‐diphenyltetrazolium bromide (MTT) and crystal violet (CV) assays, in parallel (Table 2). Cisplatin was also tested as reference.
(§2) Preparation of drug solutions. […] Stock solution of cisplatin was prepared in DMF (10 mM) immediately before use. A stock solution of BSA in PBS was prepared at 1.28 mM concentration, and stored at 4 °C in the dark. […] Alternatively, 3 or 4 (DMSO stock solution) were added to the BSA solution in PBS, always with a 10 : 1 molar ratio of BSA to ruthenacarborane. The BSA−ruthenacarborane solutions were incubated 0.5–1 h at room temperature, then diluted with cell culture medium to the desired final concentrations. Final concentrations of 3 and 4 were the same as for the BSA‐free formulation. Final DMSO was 0.02–0.5 vol %.
(§3) Colorimetric assays for cellular viability. […] For counting the number of attached (viable) cells, cells were fixed with 4 % (w/v) paraformaldehyde for 10 min at room temperature, and subsequently stained for 15 min with […] crystal violet (CV) solution. Cells were then washed with tap water, dried in air, and the CV dye was dissolved in 33 % (w/v) acetic acid solution. For the detection of mitochondrial respiration, cells were cultivated in MTT staining solution (0.5 mg mL^−1) for approximately 1 h. The dye was then discarded, and the formed formazan (purple) was dissolved in DMSO. The absorbance was measured with an automated microplate reader at λmax 540 nm, with the reference λmax 670 nm. Untreated cells or cells treated only with BSA (control) were also measured, as reference for BSA‐free and BSA‐containing drug formulations, respectively. […] Cell viability is expressed as percentage (%) relative to control (untreated cultures).58 Experiments were run in three independent replicates. […]
For orientation: Formazan colour is commonly taken as a measure of viable cells.

Assay [2] concerns A375 human skin melanoma. As to the kind of experiment: Crystal violet (CV) cell viability assay, A375. It is filed as cell-based. The settings on record: 72 h.
Description: as §1, §2, §3

In assay [3] the test system is B16 mouse melanoma. As to the kind of experiment: MTT cell viability assay, B16. The assay is classed as cell-based. The settings on record: 72 h.
Description: as §1, §2, §3

Assay [4] concerns B16 mouse melanoma. Nature of the assay: Crystal violet (CV) cell viability assay, B16. It is filed as cell-based. The settings on record: 72 h.
Description: as §1, §2, §3

In assay [5] the test system is MCF‐7 human breast adenocarcinoma. As to the kind of experiment: MTT cell viability assay, MCF‐7. It is filed as cell-based. The settings on record: 72 h.
Description: as §1, §2, §3

Assay [6] has the same test system. As to the kind of experiment: Crystal violet (CV) cell viability assay, MCF‐7. It is filed as cell-based. To be noted: 72 h.
Description: as §1, §2, §3

For assay [7], the system named is U251 human glioma. As to the kind of experiment: MTT cell viability assay, U251. It is filed as cell-based. The settings on record: 72 h.
Description: as §1, §2, §3

The subject of assay [8] is U251 human glioma. As to the kind of experiment: Crystal violet (CV) cell viability assay, U251. The assay is classed as cell-based. To be noted: read-out: IC50 U251.
Description: as §1, §2
(§4) Colorimetric assays for cellular viability. […] For counting the number of attached (viable) cells, cells were fixed with 4 % (w/v) paraformaldehyde for 10 min at room temperature, and subsequently stained for 15 min with […] crystal violet (CV) solution. Cells were then washed with tap water, dried in air, and the CV dye was dissolved in 33 % (w/v) acetic acid solution. For the detection of mitochondrial respiration, cells were cultivated in MTT staining solution (0.5 mg mL^−1) for approximately 1 h. The dye was then discarded, and the formed formazan (purple) was dissolved in DMSO. The absorbance was measured with an automated microplate reader at λmax 540 nm, with the reference λmax 670 nm. Untreated cells or cells treated only with BSA (control) were also measured, as reference for BSA‐free and BSA‐containing drug formulations, respectively. For determination of the role of autophagy specific inhibitors, CQ or 3‐MA, were applied at a concentration of 20 μM and 0.5 mM, respectively, and the cells were stained with CV dye. Cell viability is expressed as percentage (%) relative to control (untreated cultures).58 Experiments were run in three independent replicates. […] Non‐linear regression analyses of the obtained results was done using GraphPad Prism software to calculate IC50 values.
(§5) mouse microglial cell line BV‐2 was a kind gift from Dr. Irena Lavrnja, Institute for Biological Research
(§6) “Siniša Stanković” (University of Belgrade).

Assay [9] concerns LN229 human glioblastoma. Nature of the assay: MTT cell viability assay, LN229. It is filed as cell-based. To be noted: 72 h.
Description: as §1, §2, §3

The subject of assay [10] is LN229 human glioblastoma. Nature of the assay: Crystal violet (CV) cell viability assay, LN229. It is filed as cell-based. To be noted: read-out: IC50 LN229.
Description: as §1, §2, §4, §5, §6

For assay [11], the system named is murine microglial cell line BV‐2. As to the kind of experiment: MTT cell viability assay, BV‐2. It is filed as cell-based, mouse. To be noted: 72 h.
Description: as §1
(§7) Preparation of drug solutions. […] Stock solution of cisplatin was prepared in DMF (10 mM) immediately before use. A stock solution of BSA in PBS was prepared at 1.28 mM concentration, and stored at 4 °C in the dark. […] Alternatively, 3 or 4 (DMSO stock solution) were added to the BSA solution in PBS, always with a 10 : 1 molar ratio of BSA to ruthenacarborane. […]
(§8) Colorimetric assays for cellular viability. […] The absorbance was measured with an automated microplate reader at λmax 540 nm, with the reference λmax 670 nm. Untreated cells or cells treated only with BSA (control) were also measured, as reference for BSA‐free and BSA‐containing drug formulations, respectively. […] Cell viability is expressed as percentage (%) relative to control (untreated cultures).58 Experiments were run in three independent replicates. […]

For assay [12] the test system is unchanged. As to the kind of experiment: Crystal violet (CV) cell viability assay, BV‐2. The assay is classed as cell-based, mouse. To be noted: 72 h.
Description: as §1, §7, §8

In assay [13] the test system is Human fibroblast cell line MRC‐5. Nature of the assay: MTT cell viability assay, MRC‐5. The assay is classed as cell-based. To be noted: 72 h.
Description: as §1, §7, §8

For assay [14] the test system is unchanged. Nature of the assay: Crystal violet (CV) cell viability assay, MRC‐5. It is filed as cell-based. The settings on record: 72 h.
Description: as §1, §7, §8

For assay [15], the system named is primary non‐malignant mouse macrophages (Mph). As to the kind of experiment: Crystal violet (CV) cell viability assay, peritoneal macrophages (Mph). The assay is classed as cell-based. To be noted: 72 h.
Description: as §1, §7, §8

Assay [16] relates to U251 and LN229 cell lines. Nature of the assay: Cell viability assays (MTT, CV), summary for glioma and glioblastoma lines. The assay is classed as cell-based, human. To be noted: concentration range tested up to 100 μM, 72 h.
Description: as §1, §7, §8

Three compounds from article PMC6973020, “Quinoline‐Conjugated Ruthenacarboranes: Toward Hybrid Drugs with a Dual Mode of Action” (Chemmedchem, 2019) can be followed below.

Usually IC50 stands for the point on the concentration scale where inhibition reaches its midpoint.

A value given as a limit tells only on which side of the number the result lay.

In the case of “closo ‐[3‐(η^6‐p‐Cymene)‐1‐[(7‐chloroquinolin‐4‐yl)oxy]butyl acetate)‐3,1,2‐RuC2B9H10] [Compound 5]”, the IC50 in the assay on A375 human skin melanoma [1] was 43.4 ± 0.3 µM; in the assay with A375 human skin melanoma [2] it was above 100 µM; in the assay with B16 mouse melanoma [3] it was 9.5 ± 1.8 µM; in the assay on B16 mouse melanoma [4], 33.7 ± 2.9 µM; in assay [5], 15.5 ± 1.5 µM; in assay [6] it was 34.1 ± 0.5 µM. Also, the IC50 was above 100 µM in the assay on U251 human glioma [7]; above 100 µM with U251 human glioma [8] (CV assay, 72 h); 86.7 ± 3 µM in the assay with LN229 human glioblastoma [9]; 82.5 ± 7.6 µM with LN229 human glioblastoma [10] (CV assay, 72 h); 12.3 ± 0.1 µM in assay [11]; above 100 µM in assay [12]. In addition, the 50% inhibitory concentration (IC50) in [13], in assay [14] and in assay [15] was above 100 µM throughout. Moreover, the “activity against LN229 and U251 (in words)” value in assay [16] is “inactive”.

On to `N.N.[Cl][Pt][Cl]` [Cisplatin, reference compound], for which the IC50 worked out at 3.3 ± 0.4 µM in the assay on A375 human skin melanoma [1]; 3.7 ± 0.1 µM in the assay with A375 human skin melanoma [2]; 6 ± 0.4 µM in the assay on B16 mouse melanoma [3]; 10.9 ± 1.2 µM in the assay with B16 mouse melanoma [4]; 3 ± 0.5 µM in [5]; 3.5 ± 0.2 µM in [6]. The half-inhibitory concentration (IC50) in the assay with U251 human glioma [7] is 0.4 ± 0.1 µM; in the assay on U251 human glioma [8] (CV assay, 72 h) it was 0.8 ± 0.3 µM; in the assay on LN229 human glioblastoma [9], 4.1 ± 0.4 µM; in the assay on LN229 human glioblastoma [10] (CV assay, 72 h), 4.1 ± 0.6 µM.

In the case of `CCN(CC)CCCC(C)Nc1ccnc2cc(Cl)ccc12` (stereo not shown) [CQ, chloroquine, reference compound], the IC50 in the assay on U251 human glioma [8] (Homo sapiens, U-251, 72 h) was in the range of 30 to 50 µM; in the assay on LN229 human glioblastoma [10] (Homo sapiens, LN-229, 72 h) it was 30 to 50 µM.
